Data as given in PMC6917776, “Discovery of a chemical probe for PRDM9” (Nature Communications, 2019).
“And” between values parts separate entries of the source, which are not always exact repeats. Identical values can stand only once. Like-named read-outs stand apart in the source and are kept apart here.

Key:
Type in all cases: biochemical
[1] = biological target: T1, PRDM9 (amino acids: 195–415) (Homo sapiens, UniProt Q9NQV7); assay: PRDM9 methyltransferase activity assay (3H-SAM scintillation proximity assay)
T1 construct: PRDM9 (amino acids: 195–415)
T1 sequence (Q9NQV7 195-415): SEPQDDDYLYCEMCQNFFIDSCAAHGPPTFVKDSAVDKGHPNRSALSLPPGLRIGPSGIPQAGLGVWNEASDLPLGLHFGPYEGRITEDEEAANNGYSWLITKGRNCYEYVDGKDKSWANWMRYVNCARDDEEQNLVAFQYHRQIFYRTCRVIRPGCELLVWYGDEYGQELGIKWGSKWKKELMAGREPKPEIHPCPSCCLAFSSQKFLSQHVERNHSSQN
Description: Methyltransferase activity assays for PRDM9 (amino acids: 195–415) were performed by monitoring the incorporation of tritium-labeled methyl group from ^3H-SAM to H3 (1–25) peptide using scintillation proximity assay (SPA). The enzymatic reactions were performed at 23 °C with 30 min incubation in 20 mM Tris-HCl (pH 7.5), 5 mM DTT, 0.01% Triton X-100 and 1% DMSO containing 71 μM of SAM (5 μM of ^3H-SAM), 4 μM of biotinylated H3 (1–25) peptide and 5 nM of PRDM9. For PRDM7, reactions were performed at 23 °C with 90 min incubation in 20 mM BTP pH 9.0, 5 mM DTT, 0.01% Triton X-100 and 1% DMSO containing 900 μM of SAM (5 μM of ^3H-SAM), 4 μM of biotinylated H3 (1–25) peptide and 100 nM of enzyme. […] To stop the reactions, 10 μL of 7.5 M guanidine hydrochloride was added to 10 μL of reaction mixture, followed by 60 μL of buffer (20 mM Tris, pH 8.0), mixed, and transferred to a 384-well streptavidin coated Flash-plate. After mixing, the mixtures in Flash-plate were incubated for 2 h, and the CPM counts were measured using TopCount plate reader. All enzymatic reactions were performed in triplicate, and IC50 values were determined by fitting the data to Four Parameter Logistic equation using the GraphPad Prism software.

MLL3 pentameric complex = biological target: T2, MLL3 pentameric complex (Homo sapiens, UniProt Q8NEZ4); assay: Methyltransferase selectivity assay (SPA)
T2 construct: purchased Structural Genomics Consortium (SGC Toronto) in-house methyltransferase panel
Description: (§1) Selectivity against methyltransferases were determined as described previously. Details of the assays are described in the supplementary methods.
(§2) Methyltransferase selectivity assay1
(§3) The effect of chemical probes and negative controls on the methyltransferase activities of protein, DNA and RNA methyltransferases was tested by radiometric assays using 3H-SAM. For proteins such as MLL1 trimeric, MLL3 pentameric, EZH1 (PRC2) pentameric, and EZH2 (PRC2) trimeric complexes, as well as G9a, GLP, SUV39H1, SUV39H2, SUV420H1, SUV420H2, SETD2, SETD8, SETDB1, SETD7, PRMT1, PRMT3, PRMT4, PRMT5/ MEP50 complex, PRMT6, PRMT7, PRMT8, PRMT9, PRDM9, SMYD2, SMYD3, DNMT1, and BCDIN3D the incorporation of a tritium-labeled methyl group into biotinylated substrate was monitored using scintillation proximity assay (SPA). Briefly, a 10 µL reaction containing 3H-SAM and substrate at concentrations close to the apparent Km values for each enzyme (balanced conditions) was prepared. The reactions were quenched with 10 µL of 7.5 M guanidine hydrochloride; 180 µL of 20 mM Tris buffer (pH 8.0) were added, and the mixture was transferred to a 96-well FlashPlate and incubated for 1 h. The counts per minute (CPM) was measured on a TopCount plate reader. The CPM in the absence of compound or enzyme was defined as 100% activity and background (0%), respectively, for each dataset. […]

SMYD3 = biological target: T3, SMYD3 (Homo sapiens, UniProt Q9H7B4); assay: Methyltransferase selectivity assay (SPA)
T3 construct: purchased Structural Genomics Consortium (SGC Toronto) in-house methyltransferase panel
T3 sequence (Q9H7B4 1-428): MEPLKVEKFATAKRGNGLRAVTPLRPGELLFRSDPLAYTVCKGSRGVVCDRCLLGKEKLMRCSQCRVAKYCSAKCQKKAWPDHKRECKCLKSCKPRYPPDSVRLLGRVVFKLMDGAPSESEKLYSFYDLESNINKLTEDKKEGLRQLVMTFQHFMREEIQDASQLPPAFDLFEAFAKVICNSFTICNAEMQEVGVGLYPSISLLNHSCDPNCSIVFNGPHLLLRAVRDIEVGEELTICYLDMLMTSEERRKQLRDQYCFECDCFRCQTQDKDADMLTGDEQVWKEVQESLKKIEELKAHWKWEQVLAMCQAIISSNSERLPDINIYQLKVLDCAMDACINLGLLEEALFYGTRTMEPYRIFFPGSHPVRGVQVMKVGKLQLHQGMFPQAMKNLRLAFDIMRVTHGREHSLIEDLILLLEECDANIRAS
Description: as §1, §2, §3

[2] = 1µM compound, Exp1, Exp2, read-out: Activity %
[3] = 10µM compound, Exp1, Exp2, 10 µM
[4] = 10µM compound, Exp1, Exp2, read-out: Activity %

SMILES: COc1cc(OC)cc(-c2noc(N3CCN(C)C4(CCN(c5ccnc(C)c5)CC4)C3)n2)c1 [MRK-740]
- PRDM9-Activity %, single experiments ([1]; 0.00305176 µM compound, 0.00305176 µM): 94.4267% and 95.25% and 97.1828% and 103.784% and 103.017%
- activity at 0.00305176 µM ([1]; 0.00305176 µM compound, n=6, read-out: PRDM9-Activity %, Average): 97.6%
- activity at 0.00305176 µM ([1]; 0.00305176 µM compound, read-out: PRDM9-Activity %, single experiments): 91.9%
- PRDM9-Activity %, single experiments ([1]; 0.00610352 µM compound, 0.00610352 µM): 85.0663% and 85.348% and 95.7626% and 97.3747% and 91.3487%
- activity at 0.00610352 µM ([1]; 0.00610352 µM compound, n=6 MRK-740, n=3 MRK-740-NC, read-out: PRDM9-Activity %, Average): 90%
- activity at 0.00610352 µM ([1]; 0.00610352 µM compound, read-out: PRDM9-Activity %, single experiments): 84.8%
- PRDM9-Activity %, single experiments ([1]; 0.012207 µM compound, 0.012207 µM): 78.4578% and 80.6028% and 86.1288% and 97.1828% and 87.357%
- activity at 0.012207 µM ([1]; 0.012207 µM compound, n=6 MRK-740, n=3 MRK-740-NC, read-out: PRDM9-Activity %, Average): 84.8%
- activity at 0.012207 µM ([1]; 0.012207 µM compound, read-out: PRDM9-Activity %, single experiments): 79.3%
- PRDM9-Activity %, single experiments ([1]; 0.0244141 µM compound, 0.0244141 µM): 75.966% and 79.6061% and 75.3435% and 72.6952% and 77.5697%
- activity at 0.0244141 µM ([1]; 0.0244141 µM compound, n=6 MRK-740, n=3 MRK-740-NC, read-out: PRDM9-Activity %, Average): 75.8%
- activity at 0.0244141 µM ([1]; 0.0244141 µM compound, read-out: PRDM9-Activity %, single experiments): 73.4%
- PRDM9-Activity %, single experiments ([1]; 0.0488281 µM compound, 0.0488281 µM): 59.9538% and 62.5322% and 63.7138% and 61.8331% and 62.9462%
- activity at 0.0488281 µM ([1]; 0.0488281 µM compound, n=6 MRK-740, n=3 MRK-740-NC, read-out: PRDM9-Activity %, Average): 62.6%
- activity at 0.0488281 µM ([1]; 0.0488281 µM compound, read-out: PRDM9-Activity %, single experiments): 64.9%
- PRDM9-Activity %, single experiments ([1]; 0.0976562 µM compound, 0.0976562 µM): 47.0617% and 46.4983% and 51.163% and 50.5105% and 50.3953%
- activity at 0.0976562 µM ([1]; 0.0976562 µM compound, n=6 MRK-740, n=3 MRK-740-NC, read-out: PRDM9-Activity %, Average): 49%
- activity at 0.0976562 µM ([1]; 0.0976562 µM compound, read-out: PRDM9-Activity %, single experiments): 48.6%
- PRDM9-Activity %, single experiments ([1]; 0.195312 µM compound, 0.195312 µM): 35.2529% and 35.7729% and 39.7252% and 37.4223% and 38.9192%
- activity at 0.195312 µM ([1]; 0.195312 µM compound, n=6 MRK-740, n=3 MRK-740-NC, read-out: PRDM9-Activity %, Average): 36.7%
- activity at 0.195312 µM ([1]; 0.195312 µM compound, read-out: PRDM9-Activity %, single experiments): 33%
- PRDM9-Activity %, single experiments ([1]; 0.390625 µM compound, 0.390625 µM): 22.6425% and 27.2793% and 26.6754% and 26.8289% and 30.4368%
- activity at 0.390625 µM ([1]; 0.390625 µM compound, n=6 MRK-740, n=3 MRK-740-NC, read-out: PRDM9-Activity %, Average): 26.6%
- activity at 0.390625 µM ([1]; 0.390625 µM compound, read-out: PRDM9-Activity %, single experiments): 25.4%
- PRDM9-Activity %, single experiments ([1]; 0.78125 µM compound, 0.78125 µM): 15.1455% and 15.3839% and 20.1505% and 16.3507% and 20.304%
- activity at 0.78125 µM ([1]; 0.78125 µM compound, n=6 MRK-740, n=3 MRK-740-NC, read-out: PRDM9-Activity %, Average): 17.5%
- activity at 0.78125 µM ([1]; 0.78125 µM compound, read-out: PRDM9-Activity %, single experiments): 17.8%
- PRDM9-Activity %, single experiments ([1]; 1.5625 µM compound, 1.5625 µM): 9.274% and 10.0537% and 12.7044% and 15.0841% and 15.1608%
- activity at 1.5625 µM ([1]; 1.5625 µM compound, n=6 MRK-740, n=3 MRK-740-NC, read-out: PRDM9-Activity %, Average): 12%
- activity at 1.5625 µM ([1]; 1.5625 µM compound, read-out: PRDM9-Activity %, single experiments): 9.56%
- PRDM9-Activity %, single experiments ([1]; 3.125 µM compound, 3.125 µM): 7.757% and 8.32% and 10.555% and 9.672% and 9.096%
- activity at 3.125 µM ([1]; 3.125 µM compound, n=6 MRK-740, n=3 MRK-740-NC, read-out: PRDM9-Activity %, Average): 8.8%
- activity at 3.125 µM ([1]; 3.125 µM compound, read-out: PRDM9-Activity %, single experiments): 7.39%
- PRDM9-Activity %, single experiments ([1]; 6.25 µM compound, 6.25 µM): 4.5935% and 6.024% and 7.753% and 9.173% and 6.448%
- activity at 6.25 µM ([1]; 6.25 µM compound, n=6 MRK-740, n=3 MRK-740-NC, read-out: PRDM9-Activity %, Average): 6.57%
- activity at 6.25 µM ([1]; 6.25 µM compound, read-out: PRDM9-Activity %, single experiments): 5.42%
- PRDM9-Activity %, single experiments ([1]; 12.5 µM compound, 12.5 µM): 3.185% and 3.8568% and 5.834% and 4.491% and 4.606%
- activity at 12.5 µM ([1]; 12.5 µM compound, n=6 MRK-740, n=3 MRK-740-NC, read-out: PRDM9-Activity %, Average): 4.37%
- activity at 12.5 µM ([1]; 12.5 µM compound, read-out: PRDM9-Activity %, single experiments): 4.27%
- PRDM9-Activity %, single experiments ([1]; 25 µM compound, 25 µM): 2.7301% and 2.167% and 2.752% and 4.337% and 5.373% and 4.529%
- activity at 25 µM ([1]; 25 µM compound, n=6 MRK-740, n=3 MRK-740-NC, read-out: PRDM9-Activity %, Average): 3.65%
- PRDM9-Activity %, single experiments ([1]; 50 µM compound, 50 µM): 2.405% and 1.7984% and 3.488% and 4.913% and 5.45% and 4.529%
- activity at 50 µM ([1]; 50 µM compound, n=6 MRK-740, n=3 MRK-740-NC, read-out: PRDM9-Activity %, Average): 3.76%
- Activity % ([1]; PRDM9, 1µM compound, Exp1, Exp2, 1 µM): 11%
- activity at 1 µM ([1]; PRDM9, 1µM compound, Exp1, Exp2, read-out: Activity %): 10%
- Activity % ([1]; PRDM9, 10µM compound, Exp1, Exp2, 10 µM): 2.5%
- activity at 10 µM ([1]; PRDM9, 10µM compound, Exp1, Exp2, read-out: Activity %): 3%
- IC50 ([1]; biotinylated H3 (1–25) peptide, balanced conditions, mean ± standard deviation): 80 ± 16 nM
- Activity % (MLL3 pentameric complex; 1µM compound, Exp1, Exp2, 1 µM): 95%
- activity at 1 µM (MLL3 pentameric complex; [2]): 89%
- Activity % (MLL3 pentameric complex; [3]): 86%
- activity at 10 µM (MLL3 pentameric complex; [4]): 94%
- Activity % (SMYD3; 1µM compound, Exp1, Exp2, 1 µM): 91%
- activity at 1 µM (SMYD3; [2]): 95%
- Activity % (SMYD3; [3]): 101%
- activity at 10 µM (SMYD3; [4]): 96%
